Each structure is given as a SMILES string. Like-named read-outs stand apart in the source and are kept apart here.

As usually defined, the EC50 is the concentration giving half of the maximal effect.

Test [1] addresses T1, FAK (Homo sapiens, UniProt Q05397).
T1 construct: homozygous knock-in of a HiBiT tag (Promega Corporation, Madison, WI) to the C-terminus of the FAK gene in its natural genomic locus; endogenous in cells; host or cells: JHH-4-FAK-HiBiT clone d01 (CRISPR-Cas9 knock-in at the endogenous locus)
In words: FAK-HiBiT Degradation Assay. In kind it is cell-based. The conditions noted are these: for DC50: read-out: FAK HiBiT EC50; for FAK HiBiT Ymin: lower limit of the four parameter fit (value A), Ymax derived using DMSO control, JHH-4-FAK-HiBiT cells, two hours. Summed up:
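JHH-4 cells with homozygous CRISPR knock-in of C-terminal HiBiT on endogenous FAK, treated 2 h at 37 °C with compounds in 10-point 3-fold series from 1 μM. HiBiT lytic luminescence read; EC50 from four-parameter logistic fit, Ymax set by DMSO control, Ymin as lower fit limit.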
For orientation: HiBiT is a short tag that completes a luciferase, so light tracks the accessible tagged protein.

Test [2] deals with CAL-51 cells. As to the kind of experiment: CAL-51 Cell Proliferation Assay. The test is classed as cell-based. The settings on record: for EC50: 120 hours incubation, 10-point dose response, 4-fold dilutions starting at 10 μM, Cell-Titer-Glo, read-out: CAL-51 Prolif EC50; for CAL-51 Prolif Ymin: minimal percent of DMSO control observed in the concentrations tested (Ymin-obs), 120 hours. The procedure, abridged: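 Cells seeded at 350/well in RPMI complete medium onto 10-point, 4-fold compound dilutions from 10 μM (0.1% DMSO), in duplicate, and grown 120 h at 37 °C. CellTiter-Glo luminescence, blank-subtracted and normalised to DMSO, was fitted with a four-parameter logistic to give EC50; Ymin-obs is the lowest observed percent of DMSO control.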

The mark [3] stands for this setting: JHH-4-FAK-HiBiT clone d01 cells, two hours incubation, 10-point dose response, 3-fold dilution starting at 1 μM, Nano-Glo HiBiT luminescence.

T1 sequence (Q05397 whole entry): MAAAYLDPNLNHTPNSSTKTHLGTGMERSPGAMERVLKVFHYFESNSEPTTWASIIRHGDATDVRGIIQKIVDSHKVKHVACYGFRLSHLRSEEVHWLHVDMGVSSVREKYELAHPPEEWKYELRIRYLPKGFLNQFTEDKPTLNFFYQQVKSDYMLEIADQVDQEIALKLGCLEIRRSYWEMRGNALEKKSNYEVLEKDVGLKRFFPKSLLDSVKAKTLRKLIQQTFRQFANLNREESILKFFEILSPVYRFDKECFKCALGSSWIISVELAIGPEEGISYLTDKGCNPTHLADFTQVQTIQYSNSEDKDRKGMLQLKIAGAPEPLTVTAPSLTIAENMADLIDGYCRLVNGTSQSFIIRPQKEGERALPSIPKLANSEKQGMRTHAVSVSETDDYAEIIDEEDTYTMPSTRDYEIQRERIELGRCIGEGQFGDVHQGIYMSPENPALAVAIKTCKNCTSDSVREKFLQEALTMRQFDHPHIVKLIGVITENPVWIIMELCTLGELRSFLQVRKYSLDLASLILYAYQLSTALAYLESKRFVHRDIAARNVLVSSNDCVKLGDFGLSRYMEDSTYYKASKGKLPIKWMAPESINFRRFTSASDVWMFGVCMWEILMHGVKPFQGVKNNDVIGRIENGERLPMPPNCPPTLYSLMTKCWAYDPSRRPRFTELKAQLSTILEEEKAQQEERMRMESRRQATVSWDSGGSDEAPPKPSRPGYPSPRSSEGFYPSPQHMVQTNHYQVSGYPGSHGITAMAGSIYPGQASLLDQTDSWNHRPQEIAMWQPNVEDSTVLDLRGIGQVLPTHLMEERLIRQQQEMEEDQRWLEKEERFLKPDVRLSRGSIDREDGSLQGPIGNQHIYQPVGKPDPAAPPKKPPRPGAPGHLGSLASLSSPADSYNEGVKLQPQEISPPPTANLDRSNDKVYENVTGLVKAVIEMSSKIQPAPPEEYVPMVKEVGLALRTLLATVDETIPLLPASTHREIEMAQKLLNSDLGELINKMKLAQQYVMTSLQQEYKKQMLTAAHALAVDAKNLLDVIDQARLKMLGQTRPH

Take `Cc1cc(C(F)(F)F)ccc1-c1cc(N2CC[C@H](O)C2)nc2c1cnn2Cc1ccc2c(c1)CN([C@H]1CCC(=O)NC1=O)C2=O` [Example 63, (3S)-3-[5-({6-[(3S)-3-hydroxypyrrolidin-1-yl]-4-[2-methyl-4-(trifluoromethyl)phenyl]-1H-pyrazolo[3,4-b]pyridin-1-yl}methyl)-1-oxo-2,3-dihydro-1H-isoindol-2-yl]piperidine-2,6-dione]: the DC50 in test [1] (setting [3]) turned out to be 4.08 nM. Further, in test [1], the “FAK HiBiT Ymin” value is recorded as 8.81. Moreover, in test [2] (Homo sapiens), the EC50 stood at 1.92 nM. The “CAL-51 Prolif Ymin” value in test [2] came to 31.58.

Regarding `CN(c1cc(-c2ncc(C(F)(F)F)cc2Cl)c2cnn(Cc3ccc4c(c3)CN([C@H]3CCC(=O)NC3=O)C4=O)c2n1)C1CC(O)C1` (stereo partly drawn) [Example 64, (3S)-3-[5-({4-[3-chloro-5-(trifluoromethyl)pyridin-2-yl]-6-{methyl[(1s,3s)-3-hydroxycyclobutyl]amino}-1H-pyrazolo[3,4-b]pyridin-1-yl}methyl)-1-oxo-2,3-dihydro-1H-isoindol-2-yl]piperidine-2,6-dione], the EC50 in test [1] (setting [3]) came out at 4.29 nM. Also, in test [1], the “FAK HiBiT Ymin” value was found to be 9.77. In addition, in test [2], the EC50 amounted to 2.32 nM and the “CAL-51 Prolif Ymin” value is given as 32.02.

For `O=C1CCC(N2Cc3cc(Cn4ncc5c(-c6ncc(F)cc6F)cc(N6CC(F)C6)nc54)ccc3C2=O)C(=O)N1` (stereo not drawn) [Example 65, 3-(5-{[4-(3,5-difluoropyridin-2-yl)-6-(3-fluoroazetidin-1-yl)-1H-pyrazolo[3,4-b]pyridin-1-yl]methyl}-1-oxo-2,3-dihydro-1H-isoindol-2-yl)piperidine-2,6-dione], in test [1] (setting [3]), the DC50 is 4.47 nM. The “FAK HiBiT Ymin” value in test [1] is recorded as 17.03. Moreover, the EC50 in test [2] (Homo sapiens) worked out at 1.89 nM. Also, the “CAL-51 Prolif Ymin” value in test [2] came out at 36.07.

Regarding `Cc1cc(OC(F)F)cnc1-c1cc(N2CC(F)C2)nc2c1cnn2Cc1ccc2c(c1)CN([C@H]1CCC(=O)NC1=O)C2=O` [Example 66, (3S)-3-[5-({4-[5-(difluoromethoxy)-3-methylpyridin-2-yl]-6-(3-fluoroazetidin-1-yl)-1H-pyrazolo[3,4-b]pyridin-1-yl}methyl)-1-oxo-2,3-dihydro-1H-isoindol-2-yl]piperidine-2,6-dione], the DC50 in test [1] (setting [3]) was 4.63 nM. Besides, in test [1], the “FAK HiBiT Ymin” value came out at 7.72. Also, the EC50 in test [2] (Homo sapiens) came out at 1.72 nM. Moreover, in test [2], the “CAL-51 Prolif Ymin” value is 27.43.

As to `CCOc1ccc(-c2c(F)c(N3CC[C@](C)(O)C3)nc3c2cnn3Cc2ccc3c(c2)CN([C@H]2CCC(=O)NC2=O)C3=O)c(Cl)c1` [Example 67, (3S)-3-(5-{[4-(2-chloro-4-ethoxyphenyl)-5-fluoro-6-[(3S)-3-hydroxy-3-methylpyrrolidin-1-yl]-1H-pyrazolo[3,4-b]pyridin-1-yl]methyl}-1-oxo-2,3-dihydro-1H-isoindol-2-yl)piperidine-2,6-dione], the DC50 in test [1] (setting [3]) was found to be 5.06 nM. In addition, in test [1], the “FAK HiBiT Ymin” value stood at 9.35. Besides, the EC50 in test [2] (Homo sapiens) was determined as 1.6 nM. In test [2], the “CAL-51 Prolif Ymin” value was 28.60.

Take `COc1cnc(-c2cc(N3CC(F)C3)nc3c2cnn3Cc2ccc3c(c2)CN(C2CCC(=O)NC2=O)C3=O)c(Cl)c1` (stereo not drawn) [Example 69, 3-(5-{[4-(3-chloro-5-methoxypyridin-2-yl)-6-(3-fluoroazetidin-1-yl)-1H-pyrazolo[3,4-b]pyridin-1-yl]methyl}-1-oxo-2,3-dihydro-1H-isoindol-2-yl)piperidine-2,6-dione]: in test [1] (setting [3]), the DC50 turned out to be 5.55 nM. Also, in test [1], the “FAK HiBiT Ymin” value is 9.26. The EC50 in test [2] (Homo sapiens) came out at 1.84 nM. Also, the “CAL-51 Prolif Ymin” value in test [2] is recorded as 23.38.

As for `O=C1CC[C@H](N2Cc3cc(Cn4ncc5c(-c6ncc(CF)cc6Cl)cc(N6CC(F)C6)nc54)ccc3C2=O)C(=O)N1` [Example 72, (3S)-3-[5-({4-[3-chloro-5-(fluoromethyl)pyridin-2-yl]-6-(3-fluoroazetidin-1-yl)-1H-pyrazolo[3,4-b]pyridin-1-yl}methyl)-1-oxo-2,3-dihydro-1H-isoindol-2-yl]piperidine-2,6-dione], in test [1] (setting [3]), the DC50 was 6.35 nM. Further, the “FAK HiBiT Ymin” value in test [1] is recorded as 7.12. Also, the EC50 in test [2] (Homo sapiens) stood at 1.78 nM. Moreover, the “CAL-51 Prolif Ymin” value in test [2] was found to be 23.41.

On to `N#Cc1cnc(-c2cc(N3CC(F)C3)nc3c2cnn3Cc2ccc3c(c2)CN(C2CCC(=O)NC2=O)C3=O)c(Cl)c1` (stereo not drawn) [Example 73, 5-chloro-6-(1-{[2-(2,6-dioxopiperidin-3-yl)-1-oxo-2,3-dihydro-1H-isoindol-5-yl]methyl}-6-(3-fluoroazetidin-1-yl)-1H-pyrazolo[3,4-b]pyridin-4-yl)pyridine-3-carbonitrile], for which the DC50 in test [1] (setting [3]) was found to be 6.62 nM. In addition, in test [1], the “FAK HiBiT Ymin” value amounted to 11.02. The EC50 in test [2] (Homo sapiens) worked out at 3.39 nM. Moreover, the “CAL-51 Prolif Ymin” value in test [2] came out at 23.58.

As for `CCOc1cnc(-c2cc(N3CC(F)C3)nc3c2cnn3Cc2ccc3c(c2)CN(C2CCC(=O)NC2=O)C3=O)c(CC)c1` (stereo not drawn) [Example 74, 3-(5-{[4-(5-ethoxy-3-ethylpyridin-2-yl)-6-(3-fluoroazetidin-1-yl)-1H-pyrazolo[3,4-b]pyridin-1-yl]methyl}-1-oxo-2,3-dihydro-1H-isoindol-2-yl)piperidine-2,6-dione], the DC50 in test [1] (setting [3]) was found to be 6.88 nM. The “FAK HiBiT Ymin” value in test [1] is 8.00. The EC50 in test [2] (Homo sapiens) came to 4.11 nM. For the same compound, the “CAL-51 Prolif Ymin” value in test [2] stood at 34.11.

Consider `N#Cc1ccc(-c2c(F)c(N3CC(F)C3)nc3c2cnn3Cc2ccc3c(c2)CN([C@H]2CCC(=O)NC2=O)C3=O)nc1` [Example 75, 6-[1-({2-[(3S)-2,6-dioxopiperidin-3-yl]-1-oxo-2,3-dihydro-1H-isoindol-5-yl}methyl)-5-fluoro-6-(3-fluoroazetidin-1-yl)-1H-pyrazolo[3,4-b]pyridin-4-yl]pyridine-3-carbonitrile], for which the DC50 in test [1] (setting [3]) stood at 7.95 nM. In test [1], the “FAK HiBiT Ymin” value was 23.15. Besides, the EC50 in test [2] (Homo sapiens) worked out at 9.67 nM. Besides, the “CAL-51 Prolif Ymin” value in test [2] is 52.27.

Consider `O=C1CC[C@H](N2Cc3nc(Cn4ncc5c(-c6ncc(C(F)(F)F)cc6Cl)cc(N6CC(F)C6)nc54)ccc3C2=O)C(=O)N1` [Example 76, (3S)-3-[2-({4-[3-chloro-5-(trifluoromethyl)pyridin-2-yl]-6-(3-fluoroazetidin-1-yl)-1H-pyrazolo[3,4-b]pyridin-1-yl}methyl)-5-oxo-5H,6H,7H-pyrrolo[3,4-b]pyridin-6-yl]piperidine-2,6-dione], for which the DC50 in test [1] (setting [3]) turned out to be 7.97 nM. Moreover, the “FAK HiBiT Ymin” value in test [1] is listed as 9.51. Further, the EC50 in test [2] (Homo sapiens) was found to be 6.15 nM. Besides, the “CAL-51 Prolif Ymin” value in test [2] is 34.59.

Turning to `O=C1CC[C@H](N2Cc3cc(Cn4ncc5c(-c6ncc(C(F)(F)F)cc6Cl)cc(N6CC(F)C6)nc54)cnc3C2=O)C(=O)N1` [Example 77, (3S)-3-[3-({4-[3-chloro-5-(trifluoromethyl)pyridin-2-yl]-6-(3-fluoroazetidin-1-yl)-1H-pyrazolo[3,4-b]pyridin-1-yl}methyl)-7-oxo-5H,6H,7H-pyrrolo[3,4-b]pyridin-6-yl]piperidine-2,6-dione], in test [1] (setting [3]), the DC50 came out at 8 nM. The “FAK HiBiT Ymin” value in test [1] is listed as 8.29. In test [2] (Homo sapiens), the EC50 was determined as 3.67 nM. Moreover, the “CAL-51 Prolif Ymin” value in test [2] was 28.95.

The values are drawn from patent US20260078119A1, “DEGRADER COMPOUNDS AND USES THEREOF” (Bristol-Myers Squibb Company, priority 2024, published 2026).
